In US11691962B2 (eXIthera Pharmaceuticals, Inc., priority 2018, dated 2023):

Biological target: Factor XIa (Homo sapiens (Human), UniProt P03951)
Assay: Factor XIa enzyme inhibition assay (dose response, fluorogenic AMC substrate)
Assay type: biochemical
Conditions: read-out: hFXIa IC50
In short: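 Fluorogenic progress curves (30 min, 1-min reads, 30° C) were recorded for 0.25 nM FXIa cleaving 50 μM Glp-Pro-Arg-AMC in Hepes pH 7.4 buffer with NaCl and Tween 20. Compounds were serially two-fold diluted, and IC50 was fitted with a Hill equation.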

Factor XIa, sequence (P03951 388-625): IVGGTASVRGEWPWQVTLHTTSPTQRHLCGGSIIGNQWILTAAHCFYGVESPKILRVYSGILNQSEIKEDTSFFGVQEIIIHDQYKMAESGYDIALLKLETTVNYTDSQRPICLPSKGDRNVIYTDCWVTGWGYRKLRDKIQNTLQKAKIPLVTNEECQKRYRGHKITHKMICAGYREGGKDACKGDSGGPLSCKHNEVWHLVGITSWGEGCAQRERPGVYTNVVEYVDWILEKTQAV
Factor XIa, sequence (P03951 19-387 partner): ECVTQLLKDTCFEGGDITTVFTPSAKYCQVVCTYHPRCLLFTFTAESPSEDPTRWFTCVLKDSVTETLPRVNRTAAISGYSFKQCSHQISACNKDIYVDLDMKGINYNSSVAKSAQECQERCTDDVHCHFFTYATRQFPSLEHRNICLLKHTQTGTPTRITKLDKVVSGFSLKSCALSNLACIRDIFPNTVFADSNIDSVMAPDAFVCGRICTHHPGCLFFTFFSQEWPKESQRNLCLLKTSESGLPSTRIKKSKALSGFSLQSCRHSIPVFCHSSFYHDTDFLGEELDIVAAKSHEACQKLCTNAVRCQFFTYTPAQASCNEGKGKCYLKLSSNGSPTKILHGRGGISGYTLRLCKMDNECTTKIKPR

Compound | IC50
CC[C@@H](NC(=O)N1C(=O)[C@H](Cc2ccnc(N)c2)[C@H]1C(=O)N(C)c1nccn1C)C1CCCCO1 (stereo partly drawn) [Compound 1-121, (2S,3R)-3-((2-aminopyridin-4-yl)methyl)-N2-(1-methyl-1H-imidazol-2-yl)-N1-((R)-1-(oxan-2-yl)propyl)-N2-methyl-4-oxoazetidine-1,2-dicarboxamide] | 10 to 100 nM
CC[C@@H](NC(=O)N1C(=O)[C@H](Cc2ccnc(N)c2)[C@H]1C(=O)N(C)C1=NC(=O)CN1C)c1ccccc1 [Compound 1-131, (2S,3R)-3-((2-aminopyridin-4-yl)methyl)-N2-(4-oxo-1-methyl-4,5-dihydro-1H-imidazol-2-yl)-N1-((R)-1-phenylpropyl)-N2-methyl-4-oxoazetidine-1,2-dicarboxamide] | 10 to 100 nM
CC[C@@H](NC(=O)N1C(=O)[C@H](Cc2ccnc(N)c2)[C@H]1C(=O)N(C)c1ccn(C)n1)c1cccc(Cl)c1C [Compound 1-138, (2S,3R)-3-((2-aminopyridin-4-yl)methyl)-N2-(1-methyl-1H-pyrazol-3-yl)-N1-((R)-1-(3-chloro-2-methylphenyl)propyl)-N2-methyl-4-oxoazetidine-1,2-dicarboxamide] | < 10 nM
CC[C@@H](NC(=O)N1C(=O)[C@H](Cc2ccnc(N)c2)[C@H]1C(=O)N(C)c1ccn(C)n1)c1cc(Cl)ccc1C [Compound 1-141, (2S,3R)-3-((2-aminopyridin-4-yl)methyl)-N2-(1-methyl-1H-pyrazol-3-yl)-N1-((R)-1-(5-chloro-2-methylphenyl)propyl)-N2-methyl-4-oxoazetidine-1,2-dicarboxamide] | < 10 nM
CC[C@@H](NC(=O)N1C(=O)[C@H](Cc2cc(C)nc(N)c2)[C@H]1C(=O)N(C)c1ccn(C)n1)c1ccc(C)cc1 [Compound 1-142, (2S,3R)-3-((2-amino-6-methylpyridin-4-yl)methyl)-N2-(1-methyl-1H-pyrazol-3-yl)-N1-((R)-1-(4-methylphenyl)propyl)-N2-methyl-4-oxoazetidine-1,2-dicarboxamide] | < 10 nM
CC[C@@H](NC(=O)N1C(=O)[C@H](Cc2cc(C)nc(N)c2)[C@H]1C(=O)N(C)c1ccn(C)n1)c1ccc(C)c(C)c1 [Compound 1-145, (2S,3R)-3-((2-amino-6-methylpyridin-4-yl)methyl)-N2-(1-methyl-1H-pyrazol-3-yl)-N1-((R)-1-(3,4-dimethylphenyl)propyl)-N2-methyl-4-oxoazetidine-1,2-dicarboxamide] | < 10 nM
CC[C@@H](NC(=O)N1C(=O)[C@H](Cc2cc(C)nc(N)c2)[C@H]1C(=O)N(C)C1=NCC(=O)N1C)c1ccccc1 [Compound 1-148, (2S,3R)-3-((2-amino-6-methylpyridin-4-yl)methyl)-N2-(5-oxo-1-methyl-4,5-dihydro-1H-imidazol-2-yl)-N1-((R)-1-phenylpropyl)-N2-methyl-4-oxoazetidine-1,2-dicarboxamide] | 100 to 1000 nM
CC[C@@H](NC(=O)N1C(=O)[C@H](Cc2cc(C)nc(N)c2)[C@H]1C(=O)N(C)c1ccnn1C)c1cccc(C)c1C [Compound 1-149, (2S,3R)-3-((2-amino-6-methylpyridin-4-yl)methyl)-N2-(1-methyl-1H-pyrazol-5-yl)-N1-((R)-1-(2,3-dimethylphenyl)propyl)-N2-methyl-4-oxoazetidine-1,2-dicarboxamide] | 10 to 100 nM
CC[C@@H](NC(=O)N1C(=O)[C@H](Cc2cc(C)nc(N)c2)[C@H]1C(=O)N(C)c1ccnn1C)c1ccc(F)cc1 [Compound 1-156, (2S,3R)-3-((2-amino-6-methylpyridin-4-yl)methyl)-N2-(1-methyl-1H-pyrazol-5-yl)-N1-((R)-1-(4-fluorophenyl)propyl)-N2-methyl-4-oxoazetidine-1,2-dicarboxamide] | < 10 nM
CC[C@@H](NC(=O)N1C(=O)[C@H](Cc2cc(C)nc(N)c2)[C@H]1C(=O)N(C)c1ccnn1C)c1ccc(Cl)cc1 [Compound 1-157, (2S,3R)-3-((2-amino-6-methylpyridin-4-yl)methyl)-N2-(1-methyl-1H-pyrazol-5-yl)-N1-((R)-1-(4-chlorophenyl)propyl)-N2-methyl-4-oxoazetidine-1,2-dicarboxamide] | 10 to 100 nM

More lines, now with the values ahead:

IC50 | Compound
< 10 nM | CC[C@@H](NC(=O)N1C(=O)[C@H](Cc2ccnc(N)c2)[C@H]1C(=O)N(C)c1nccn1C)c1ccc(C)cc1F [Compound 1-119, (2S,3R)-3-((2-aminopyridin-4-yl)methyl)-N2-(1-methyl-1H-imidazol-2-yl)-N1-((R)-1-(2-fluoro-4-methylphenyl)propyl)-N2-methyl-4-oxoazetidine-1,2-dicarboxamide]
10 to 100 nM | CC[C@@H](NC(=O)N1C(=O)[C@H](Cc2ccnc(N)c2)[C@H]1C(=O)N(C)c1nccn1C)C1CCOCC1 [Compound 1-122, (2S,3R)-3-((2-aminopyridin-4-yl)methyl)-N2-(1-methyl-1H-imidazol-2-yl)-N1-((R)-1-(oxan-4-yl)propyl)-N2-methyl-4-oxoazetidine-1,2-dicarboxamide]
< 10 nM | CC[C@@H](NC(=O)N1C(=O)[C@H](Cc2ccnc(N)c2)[C@H]1C(=O)N(C)c1ccn(C)n1)c1ccc(C)cc1 [Compound 1-124, (2S,3R)-3-((2-aminopyridin-4-yl)methyl)-N2-(1-methyl-1H-pyrazol-3-yl)-N1-((R)-1-(4-methylphenyl)propyl)-N2-methyl-4-oxoazetidine-1,2-dicarboxamide]
10 to 100 nM | CC[C@@H](NC(=O)N1C(=O)[C@H](Cc2ccnc(N)c2)[C@H]1C(=O)N(C)c1nccn1C)C1CCCOC1 (stereo partly drawn) [Compound 1-126, (2S,3R)-3-((2-aminopyridin-4-yl)methyl)-N2-(1-methyl-1H-imidazol-2-yl)-N1-((R)-1-(oxan-3-yl)propyl)-N2-methyl-4-oxoazetidine-1,2-dicarboxamide]
< 10 nM | CC[C@@H](NC(=O)N1C(=O)[C@H](Cc2ccnc(N)c2)[C@H]1C(=O)N(C)c1ccn(C)n1)c1ccccc1C [Compound 1-130, (2S,3R)-3-((2-aminopyridin-4-yl)methyl)-N2-(1-methyl-1H-pyrazol-3-yl)-N1-((R)-1-(2-methylphenyl)propyl)-N2-methyl-4-oxoazetidine-1,2-dicarboxamide]
< 10 nM | CC[C@@H](NC(=O)N1C(=O)[C@H](Cc2ccnc(N)c2)[C@H]1C(=O)N(C)c1ccn(C)n1)c1cc(C)ccc1C [Compound 1-132, (2S,3R)-3-((2-aminopyridin-4-yl)methyl)-N2-(1-methyl-1H-pyrazol-3-yl)-N1-((R)-1-(2,5-dimethylphenyl)propyl)-N2-methyl-4-oxoazetidine-1,2-dicarboxamide]
10 to 100 nM | CC[C@@H](NC(=O)N1C(=O)[C@H](Cc2ccnc(N)c2)[C@H]1C(=O)N(C)c1ccn(C)n1)c1ccccc1F [Compound 1-133, (2S,3R)-3-((2-aminopyridin-4-yl)methyl)-N2-(1-methyl-1H-pyrazol-3-yl)-N1-((R)-1-(2-fluorophenyl)propyl)-N2-methyl-4-oxoazetidine-1,2-dicarboxamide]
< 10 nM | CC[C@@H](NC(=O)N1C(=O)[C@H](Cc2ccnc(N)c2)[C@H]1C(=O)N(C)c1ccn(C)n1)c1cc(F)ccc1C [Compound 1-135, (2S,3R)-3-((2-aminopyridin-4-yl)methyl)-N2-(1-methyl-1H-pyrazol-3-yl)-N1-((R)-1-(5-fluoro-2-methylphenyl)propyl)-N2-methyl-4-oxoazetidine-1,2-dicarboxamide]
10 to 100 nM | CC[C@@H](NC(=O)N1C(=O)[C@H](Cc2cc(C)nc(N)c2)[C@H]1C(=O)N(C)C1=NC(=O)CN1C)c1ccccc1 [Compound 1-139, (2S,3R)-3-((2-amino-6-methylpyridin-4-yl)methyl)-N2-(4-oxo-1-methyl-4,5-dihydro-1H-imidazol-2-yl)-N1-((R)-1-phenylpropyl)-N2-methyl-4-oxoazetidine-1,2-dicarboxamide]
< 10 nM | CC[C@@H](NC(=O)N1C(=O)[C@H](Cc2ccnc(N)c2)[C@H]1C(=O)N(C)c1ccn(C)n1)c1cccc(C)c1C [Compound 1-140, (2S,3R)-3-((2-aminopyridin-4-yl)methyl)-N2-(1-methyl-1H-pyrazol-3-yl)-N1-((R)-1-(2,3-dimethylphenyl)propyl)-N2-methyl-4-oxoazetidine-1,2-dicarboxamide]
< 10 nM | CC[C@@H](NC(=O)N1C(=O)[C@H](Cc2cc(C)nc(N)c2)[C@H]1C(=O)N(C)c1ccn(C)n1)c1ccc(C)c(Cl)c1 [Compound 1-147, (2S,3R)-3-((2-amino-6-methylpyridin-4-yl)methyl)-N2-(1-methyl-1H-pyrazol-3-yl)-N1-((R)-1-(3-chloro-4-methylphenyl)propyl)-N2-methyl-4-oxoazetidine-1,2-dicarboxamide]
< 10 nM | CC[C@@H](NC(=O)N1C(=O)[C@H](Cc2cc(C)nc(N)c2)[C@H]1C(=O)N(C)c1ccnn1C)c1cccc(F)c1C [Compound 1-150, (2S,3R)-3-((2-amino-6-methylpyridin-4-yl)methyl)-N2-(1-methyl-1H-pyrazol-5-yl)-N1-((R)-1-(3-fluoro-2-methylphenyl)propyl)-N2-methyl-4-oxoazetidine-1,2-dicarboxamide]
< 10 nM | CC[C@@H](NC(=O)N1C(=O)[C@H](Cc2cc(C)nc(N)c2)[C@H]1C(=O)N(C)c1ccnn1C)c1ccc(F)c(C)c1 [Compound 1-153, (2S,3R)-3-((2-amino-6-methylpyridin-4-yl)methyl)-N2-(1-methyl-1H-pyrazol-5-yl)-N1-((R)-1-(4-fluoro-3-methylphenyl)propyl)-N2-methyl-4-oxoazetidine-1,2-dicarboxamide]
< 10 nM | CC[C@@H](NC(=O)N1C(=O)[C@H](Cc2cc(C)nc(N)c2)[C@H]1C(=O)N(C)c1ccnn1C)c1ccc(C)cc1 [Compound 1-154, (2S,3R)-3-((2-amino-6-methylpyridin-4-yl)methyl)-N2-(1-methyl-1H-pyrazol-5-yl)-N1-((R)-1-(4-methylphenyl)propyl)-N2-methyl-4-oxoazetidine-1,2-dicarboxamide]
